One may read the inhibition as the drop in the measured response relative to a control, in per cent. Read a high inhibition as a strong effect. Broadly, the EC50 is the concentration that produces a half-maximal response. Read a high EC50 as a need for much substance.

Format in all cases: cell-based
The subject of assay [1] is SDF-1 induced Ca flux in SUP-T1 cells. The experiment in a line: Inhibition of chemokine (SDF-1) induced Ca flux measured on a FLIPR. The note with it: Homo sapiens. The gist of the method:
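Fluo-3-loaded SUP-T1 cells (3×10^5 per well) preincubated with compound for 10 min at 37° C in HBSS/20 mM Hepes/0.2% BSA, pH 7.4, then stimulated with SDF-1. Fluorescence read on a FLIPR for 4 min after a 20-second baseline.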

Another assay has as its system HIV-1 NL4.3 or IIIB. The experiment in a line: Inhibition of HIV-1 (NL4.3 or IIIB, CXCR4 using) replication in MT-4 cells, MTT viability. The note with it: Human immunodeficiency virus 1, IIIB, MT4, concentration protecting 50% of virus-infected cells against viral cytopathicity. An outline of the steps:
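MT-4 cells infected at MOI 0.01 (100 × CCID50) with test compound at various concentrations, cytotoxicity run in parallel on uninfected cells. Viable cells quantified by MTT colorimetry after 5 days of proliferation. EC50 is the concentration protecting 50% of infected cells from viral cytopathicity.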
For orientation: Cytopathic effects are the visible damage that an infection or toxin causes in cultured cells.

The next assay has as its system HIV-1 BaL. The experiment in a line: Inhibition of HIV-1 BaL (CCR5 using) replication in PHA-stimulated PBMC's, viral p24 antigen expression. The note with it: Human immunodeficiency virus 1, BAL.

A value given as a limit tells only on which side of the number the result lay.

In the case of `Cc1cc2nc(CN(Cc3ccc(CNCc4ccccn4)cc3)C3CCCc4cccnc43)[nH]c2cc1C` (stereo not drawn) [Example 2, N-(2-pyridinylmethyl)-N′-(5,6-dimethyl-1-H-benzimidazol-2-ylmethyl)-N′-(5,6,7,8-tetrahydro-8-quinolinyl)-1,4-benzenedimethanamine], in assay [1], the inhibition at 20 µg/mL was > 20%. The EC50 in the assay with HIV-1 NL4.3 or IIIB and with HIV-1 BaL was < 20 mg/L throughout.

For the compound `O=[N+]([O-])c1ccc(-c2cnc(CN(Cc3ccc(CNCc4ccccn4)cc3)C3CCCc4cccnc43)[nH]2)cc1` (stereo not drawn) [Example 27, N-(2-pyridinylmethyl)-N′-[4-(4-nitrophenyl)-1H-imidazol-2-ylmethyl]-N′-(5,6,7,8-tetrahydro-8-quinolinyl)-1,4-benzenedimethanamine], the inhibition at 20 µg/mL in assay [1] was > 20%. The EC50 with HIV-1 NL4.3 or IIIB and in the assay on HIV-1 BaL was < 20 mg/L in each case.

`Oc1cccnc1CNCc1ccc(CN(Cc2nc3ccccc3[nH]2)C2CCCc3cccnc32)cc1` (stereo not drawn) [Example 55, N-(3-hydroxy-2-pyridinylmethyl)-N′-(1H-benzimidazol-2-ylmethyl)-N′-(5,6,7,8-tetrahydro-8-quinolinyl)-1,4-benzenedimethanamine]: the inhibition at 20 µg/mL in assay [1] is > 20%. For the same compound, the EC50 in the assay with HIV-1 NL4.3 or IIIB and in the assay with HIV-1 BaL was < 20 mg/L throughout.

Regarding `Cc1cc(C)nc(CNCc2ccc(CN(Cc3nc4ccccc4[nH]3)C3CCCc4cccnc43)cc2)c1` (stereo not drawn) [Example 61, N-(4,6-dimethyl-2-pyridinylmethyl)-N′-(1H-benzimidazol-2-ylmethyl)-N′-(5,6,7,8-tetrahydro-8-quinolinyl)-1,4-benzenedimethanamine], in assay [1], the inhibition at 20 µg/mL is > 20%. In addition, the EC50 in the assay on HIV-1 NL4.3 or IIIB and with HIV-1 BaL was < 20 mg/L throughout.

In the case of `c1ccc(CNCc2ccc(CN(CCNCc3nc4ccccc4[nH]3)C3CCCc4cccnc43)cc2)nc1` (stereo not drawn) [Example 67, N-(2-pyridinylmethyl)-N′-[2-[(1H-benzimidazol-2-ylmethyl)amino]ethyl]-N′-(5,6,7,8-tetrahydro-8-quinolinyl)-1,4-benzenedimethanamine], the inhibition at 20 µg/mL in assay [1] was > 20%. The EC50 with HIV-1 NL4.3 or IIIB and with HIV-1 BaL was < 20 mg/L each time.

As to `FC(F)(F)c1ccc2nc(CN(Cc3ccc(CNCc4ccccn4)cc3)C3CCCc4cccnc43)[nH]c2c1` (stereo not drawn) [Example 1, N-(2-pyridinylmethyl)-N′-(5-trifluoromethyl-1-H-benzimidazol-2-ylmethyl)-N′-(5,6,7,8-tetrahydro-8-quinolinyl)-1,4-benzenedimethanamine], the inhibition at 20 µg/mL in assay [1] was > 20%. Besides, the EC50 in the assay on HIV-1 NL4.3 or IIIB and in the assay on HIV-1 BaL was < 20 mg/L throughout.

These data come from patent US7084155B2, “Chemokine receptor binding heterocyclic compounds” (AnorMED, priority 2000, dated 2006).
